These results are taken from patent US9079870B2, “Thiol mediated/activated prodrugs of sulfur dioxide (SO2) having anti-bacterial activity” (priority 2012, dated 2015).

A short description of series [1]: Cysteine-activated sulfur dioxide release, ion chromatography analysis of sulfite. The settings on record: for SO2 yield, 5 min: 5 min after treatment of compound (100 1M) with 10 equiv of cysteine in pH 7.4 phosphate buffer; for K (min−1), rate of sulfite release: compound (100 μM), cysteine (10 equiv), pH 7.4 phosphate buffer (20 mM); for Max SO2 yield: sum of sulfite and sulfate, compound 100 μM, cysteine 10 equiv; for % SO2 (30 min): 30 min after commencement of the reaction with thiol, per mole of compound.

Series [2] can be described thus: Pararosaniline-based colorimetric assay for sulfur dioxide. Format: physicochemical. Particulars: detected with pararosaniline-based colorimetric assay; 10 equiv cysteine, pH 7.4.
The conditions of series [3]: Table 4; values are for the amine without a DNs group; cited from earlier work.
Series [4] deals with Mycobacterium tuberculosis H37Rv strain. Description: Antimycobacterial activity assay (MIC, 7H11 agar). Format: cell-based. Particulars: Mtb H37Rv.
The conditions of series [5]: buffer, 100 µM, pH 7.4.
In another series the test system is S. aureus ATCC 29213. Briefly: Antibacterial activity (MIC) against S. aureus. The settings on record: Staphylococcus aureus, ATCC29213, read-out: MIC (μg/mL) S. aureus ATCC 29213. Format: cell-based. The text has this:
(§1) The antibacterial activity of thiol mediated/activated prodrugs of SO2 i.e. 2,4-dinitrophenylsulfonamide related compounds against the gram positive pathogenic bacteria selected from the group S. aureus, E. feacalis is given herein below Table 2a.

The subject of another series is E. feacalis ATCC 29212. Description: Antibacterial activity (MIC) against E. feacalis. Type of series: cell-based. The settings on record: Enterococcus faecalis, ATCC29212, read-out: MIC (μg/mL) E. feacalis ATCC 29212.
Text: as §1

Where [6] appears, read: 30 min after treatment of compound (100 1M) with 10 equiv of cysteine in pH 7.4 phosphate buffer.
Setting [7] is: Table 3, 30 min after treatment of compound (100 μM) with 10 equiv of cysteine in pH 7.4 phosphate buffer.
Setting [8] is: Mycobacterium tuberculosis, H37RV, Table 3.
[9] abbreviates: Mycobacterium tuberculosis, H37RV, Table 3, inhibit 99% of bacterial growth.
Setting [10] is: Mycobacterium tuberculosis, H37RV, 672 h, Table 3, inhibit 99% of bacterial growth, read-out: MIC.

In brackets after ≈: the same amount, converted by molar mass. Where two headings read alike, the source gives them in different places.

On to `O=[N+]([O-])c1ccc(S(=O)(=O)Nc2ccccc2)c([N+](=O)[O-])c1` [Compound 6, N-phenyl, 2,4-dinitrophenylsulfonamide], for which the “SO2 yield, 5 min” value in series [1] was determined as 37 µM. For the same molecule, in series [1] (30 min after commencement of the reaction with cysteine (10 equiv), pH 7.4), the “SO2 yield in 30 min (%)” value came to 55%. Moreover, the “SO2 yield, 30 min” value in series [1] (setting [6]) and in series [1] (setting [7]) was 55 µM each time. In series [1], the “K (min−1), rate of sulfite release” value stood at 0.0273 min⁻¹. In series [1] (pH 7.4), the “Max SO2 yield” value was 94 µM. Moreover, in series [2], the SO2 source result is given as “yes”. In series [3], the pKaH is listed as 4.64. Moreover, the MIC in series [4] (Mycobacterium tuberculosis, H37RV, 672 h, Table 3, inhibit 99% of bacterial growth) is no more than 25 mg/L; in series [4] (Mycobacterium tuberculosis, H37RV, Table 2b), 9.69 µM; in series [4] (Mycobacterium tuberculosis, H37RV, Table 2b, inhibit 99% of bacterial growth) it was 3.13 mg/L; in series [4] (setting [8]), 9.7 µM; in series [4] (setting [9]), 3.13 mg/L. Further, in series [5], the “t1/2 (min) of SO2 generation” value is recorded as 25 min.

Take `O=[N+]([O-])c1ccc(S(=O)(=O)Nc2cccc(F)c2)c([N+](=O)[O-])c1` [Compound 9, N-(3-fluorophenyl) 2,4-dinitrophenylsulfonamide]: the “SO2 yield, 5 min” value in series [1] turned out to be 5 µM. Further, the “SO2 yield, 30 min” value in series [1] (setting [6]) and in series [1] (setting [7]) was 24 µM in each case. Besides, in series [1], the “K (min−1), rate of sulfite release” value worked out at 0.0106 min⁻¹. The “Max SO2 yield” value in series [1] (pH 7.4) was found to be 86 µM. Besides, the SO2 source entry in series [2] is “yes”. In series [3], the pKaH is listed as 3.38. Besides, the MIC in series [4] (Table 2b, read-out: MIC) is reported as 73 µM; in series [4] (Table 3, read-out: MIC), 73 µM.

Regarding `CCCN(Cc1ccccc1)S(=O)(=O)c1ccc([N+](=O)[O-])cc1[N+](=O)[O-]` [Compound 16, (N-benzyl, N-propyl) 2,4-dinitrophenylsulfonamide], in series [1], the “SO2 yield, 5 min” value stood at 68 µM. The “SO2 yield, 30 min” value in series [1] (setting [6]) and in series [1] (setting [7]) was 96 µM each time. The “K (min−1), rate of sulfite release” value in series [1] worked out at 0.1517 min⁻¹. The “Max SO2 yield” value in series [1] (pH 7.4) came out at 96 µM. Moreover, the SO2 source result in series [2] is recorded as “yes”. In addition, in series [3], the pKaH is listed as 9.68. Besides, the MIC in series [4] (Table 2b, read-out: MIC) is given as 8.25 µM; in series [4] (Table 3, read-out: MIC), 8.25 µM.

Molecule `O=[N+]([O-])c1ccc(S(=O)(=O)N2CCOCC2)c([N+](=O)[O-])c1` [Compound 23, 4-[(2,4-dinitrophenyl)sulfonyl]morpholine] yielded a melting point of 144 to 145 °C. Further, in series [1] (setting [7]), the “SO2 yield, 30 min” value is 96 µM. Moreover, the SO2 source result in series [2] is listed as “yes”. Also, the MIC in series [4] (setting [10]) was no more than 25 mg/L. This molecule also came in with an MIC in series [4] (setting [8]) of 19.6 µM. Moreover, in series [4] (setting [9]), the MIC amounted to 6.25 mg/L.

In the case of `O=[N+]([O-])c1ccc(S(=O)(=O)N2CCCCC2)c([N+](=O)[O-])c1` [Compound 24, 1-[(2,4-dinitrophenyl)sulfonyl]piperidine], the melting point amounted to 138 °C. Moreover, the “SO2 yield, 30 min” value in series [1] (setting [7]) was 91 µM. Also, the SO2 source result in series [2] was “yes”. In addition, in series [4] (setting [10]), the MIC was no more than 25 mg/L. In series [4] (setting [8]), this molecule came in with an MIC of 2.5 µM. The molecule also had an MIC in series [4] (setting [9]) of 0.78 mg/L. The MIC in the series on S. aureus ATCC 29213 was found to be 4 µg/mL (≈ 12.7 µM). For the same molecule, in the series on E. feacalis ATCC 29212, the MIC is greater than 16 µg/mL.

With `O=[N+]([O-])c1ccc(S(=O)(=O)N(CCCN(c2ccccc2)S(=O)(=O)c2ccc([N+](=O)[O-])cc2[N+](=O)[O-])Cc2ccccc2)c([N+](=O)[O-])c1` [Compound 38, N-benzyl-N-(3-(2,4-dinitro-(N-phenyl)phenylsulfonamido)propyl)-2,4 dinitro benzene sulfonamide], the melting point lay within 151 to 153 °C. Further, in series [1], the “% SO2 (30 min)” value was found to be 160%.

In turn, `O=[N+]([O-])c1ccc(S(=O)(=O)N(CCCN(c2ccccc2F)S(=O)(=O)c2ccc([N+](=O)[O-])cc2[N+](=O)[O-])Cc2ccccc2)c([N+](=O)[O-])c1` [Compound 39, N-benzyl-N-(3-(N-(2-fluorophenyl)-2,4-dinitrophenylsulfonamido)propyl)-2,4-dinitrobenzenesulfonamide] showed a melting point of 151 to 153 °C. Moreover, in series [1], the “% SO2 (30 min)” value was 141%.

For orientation: melting point means the temperature of the solid-liquid transition.
